Source: US20210323918A1, “COMPOSITIONS AND METHODS FOR SUPPRESSING AND/OR TREATING A GROWTH RELATED DISEASE AND/OR A CLINICAL CONDITION THEREOF” (CK Biotech Inc., priority 2018, published 2021)

Experiment: Toxicity observation during 10 weeks of treatment in mice
Assay type: in vivo
Method: Animals. Cxxc5^−/− mice were established in a previous study. See e.g., Kim H. Y. et al. (2015), CXXC5 is a negative feedback regulator of the Wnt/beta-catenin pathway involved in osteoblast differentiation. CELL DEATH DIFFER 22: 912-920. To manipulate growth plate senescence by estrogen, 3-week-old […] Cxxc5^−/− male mice received weekly intramuscular (i.m.) injections of either 70 μg/kg estradiol (E2) cypionate (Sigma-Aldrich) or vehicle (cottonseed oil) for 3 weeks. To investigate the effects of KY19382 treatment on longitudinal bone growth, C57BL/6 male mice were purchased from KOATECH (Gyeonggido, Korea). KY19382 (0.1 ing/kg) was administered daily by intraperitoneal (i.p.) injection to 3- and 7-week-old mice for 2 weeks or to 3-week-old mice for 10 weeks. For BrdU labeling experiments, mice were i.p. injected with 50 mg/kg BrdU (Sigma-Aldrich) before 24 hours to sacrifice. […]
Radiographic and histochemical analyses. […] For fluorescence staining, the sections were incubated with primary antibody at 4° C. overnight, followed by incubation with anti-mouse Alexa Fluor 488 (ThermoFisher Scientific, A11008; 1:200) or anti-rabbit Alex Fluor 555 (ThermoFisher Scientific, A21428; 1:200) secondary antibodies at room temperature for 1 hour. […]

SMILES: CO/N=C1/C(=C2/C(=O)Nc3cc(Cl)c(Cl)cc32)Nc2ccccc21 [KY19382, 5,6-dichloroindirubin-3′-methoxime]
- histological abnormalities in articular cartilage and liver tissues (0.1 mg/kg daily for 10 weeks): no histological abnormalities
- weight during treatment (0.1 mg/kg daily, 10 weeks of treatment, vs vehicle): no difference
